Residues, ends and D or L forms follow the SMILES beside them. No end group written: not given here.
How the values were obtained:
Format in all cases: cell-based
Sheep red cells = experiment: inhibition zone assay, lethal concentration on sheep red cells; settings: thin agarose plates
Protocol: (§1) Thin agar or agarose plates (8.5 cm diameter) were prepared with 6 ml of rich medium containing 100 ug/ml of streptomycin and 2×10^5 viable cells of a test organism resistant to streptomycin. Wells of 3.5 mm diameter were punched in the plates and 3 ul of serially diluted samples were placed in the wells. The diameters of the zones of inhibition around the wells were measured after overnight incubation at 30° or 37° C. For each peptide the squares of the zone diameters were plotted against the logarithm of the concentration, and from the slopes and intercepts the lethal concentrations were calculated as described by Hultmark (1983) EMBO J. 2, 571-76 or Hultmark et al (1982) Eur. J. Biochem. 127 207-217 each of which being incorporated herein by reference.
(§2) Lethal Concentrations calculated from inhibition zones on thin agarose
(§3) S. aureus Cowan 1; Strep: S. pyogenes; SRC: Sheep red cells.; *all amino

B. subtilis Bs11 = experiment: inhibition zone assay, lethal concentration; settings: for Lethal Concentrations Bs11 +ME: B. subtilis Bs11, plates prepared with medium E; for Lethal Concentrations Bs11: B. subtilis Bs11, thin agarose plates
Protocol: as §1, §2
(§4) aeruginosa; Bs11: B. subtilis; +ME: plates prepared with medium E; Staph: […]

P. aeruginosa OT97 = experiment: inhibition zone assay, lethal concentration; settings: P. aeruginosa OT97, thin agarose plates
Protocol: as §1, §2
(§5) plates seeded with the respective organisms. D21: E. coli; OT97: P.
as §4

S. pyogenes = experiment: inhibition zone assay, lethal concentration; settings: thin agarose plates
Protocol: as §1, §2, §3

S. aureus Cowan 1 = experiment: inhibition zone assay, lethal concentration; settings: S. aureus Cowan 1, thin agarose plates
Protocol: as §1, §2
aeruginosa; Bs11: B. subtilis; +ME: plates prepared with medium E; Staph:
as §3

E. coli D21 = experiment: inhibition zone assay, lethal concentration; settings: E. coli D21, thin agarose plates
Protocol: as §1, §2, §5

Molecule: CC[C@H](C)[C@H](NC(=O)CNC(=O)[C@H](CCC(N)=O)NC(=O)CNC(=O)[C@@H](NC(=O)[C@H](CCCCN)NC(=O)[C@H](CCC(=O)O)NC(=O)[C@@H](NC(=O)[C@H](CCCCN)NC(=O)[C@H](CCCCN)NC(=O)[C@H](Cc1ccccc1)NC(=O)[C@H](CC(C)C)NC(=O)[C@H](CCCCN)NC(=O)[C@H](Cc1c[nH]c2ccccc12)NC(=O)[C@@H](N)CCCCN)[C@@H](C)CC)C(C)C)C(=O)NCC(=O)N[C@@H](C)C(=O)N[C@H](C(=O)N[C@@H](CC(C)C)C(=O)N[C@@H](CCCCN)C(=O)N[C@H](C(=O)N[C@@H](CC(C)C)C(=O)N[C@H](C(=O)N[C@H](C(=O)NCC(=O)N[C@@H](CC(C)C)C(N)=O)[C@@H](C)O)[C@@H](C)O)C(C)C)C(C)C [Compound 3]
- Lethal Concentrations SRC (Sheep red cells): > 200 µM

Molecule: CC[C@@H](C)[C@@H](NC(=O)CNC(=O)[C@@H](CCC(N)=O)NC(=O)CNC(=O)[C@H](NC(=O)[C@@H](CCCCN)NC(=O)[C@@H](CCC(=O)O)NC(=O)[C@H](NC(=O)[C@@H](CCCCN)NC(=O)[C@@H](CCCCN)NC(=O)[C@@H](Cc1ccccc1)NC(=O)[C@@H](CC(C)C)NC(=O)[C@@H](CCCCN)NC(=O)[C@@H](Cc1c[nH]c2ccccc12)NC(=O)[C@H](N)CCCCN)[C@H](C)CC)C(C)C)C(=O)NCC(=O)N[C@H](C)C(=O)N[C@@H](C(=O)N[C@H](CC(C)C)C(=O)N[C@H](CCCCN)C(=O)N[C@@H](C(=O)N[C@H](CC(C)C)C(=O)N[C@@H](C(=O)N[C@@H](C(=O)NCC(=O)N[C@H](CC(C)C)C(N)=O)[C@H](C)O)[C@H](C)O)C(C)C)C(C)C [Compound 4]
- Lethal Concentrations SRC (Sheep red cells): 500 µM

Molecule: CC[C@H](C)[C@H](NC(=O)CNC(=O)[C@@H](NC(=O)[C@H](CCCCN)NC(=O)[C@H](CCCCN)NC(=O)[C@H](Cc1ccccc1)NC(=O)[C@H](CC(C)C)NC(=O)[C@H](CCCCN)NC(=O)[C@H](Cc1c[nH]c2ccccc12)NC(=O)[C@@H](N)CCCCN)[C@@H](C)CC)C(=O)NCC(=O)N[C@@H](C)C(=O)N[C@H](C(=O)N[C@@H](CC(C)C)C(=O)N[C@@H](CCCCN)C(=O)N[C@H](C(=O)N[C@@H](CC(C)C)C(=O)N[C@H](C(=O)N[C@H](C(=O)NCC(=O)N[C@@H](CC(C)C)C(=O)N1CCC[C@H]1C(=O)N[C@@H](C)C(=O)N[C@@H](CC(C)C)C(=O)N[C@H](C(=O)N[C@@H](CO)C(N)=O)[C@@H](C)CC)[C@@H](C)O)[C@@H](C)O)C(C)C)C(C)C [Compound 6]
- Lethal Concentrations SRC (Sheep red cells): > 600 µM

Molecule: CC[C@@H](C)[C@@H](NC(=O)CNC(=O)[C@H](NC(=O)[C@@H](CCCCN)NC(=O)[C@@H](CCCCN)NC(=O)[C@@H](Cc1ccccc1)NC(=O)[C@@H](CC(C)C)NC(=O)[C@@H](CCCCN)NC(=O)[C@@H](Cc1c[nH]c2ccccc12)NC(=O)[C@H](N)CCCCN)[C@H](C)CC)C(=O)NCC(=O)N[C@H](C)C(=O)N[C@@H](C(=O)N[C@H](CC(C)C)C(=O)N[C@H](CCCCN)C(=O)N[C@@H](C(=O)N[C@H](CC(C)C)C(=O)N[C@@H](C(=O)N[C@@H](C(=O)NCC(=O)N[C@H](CC(C)C)C(=O)N1CCC[C@@H]1C(=O)N[C@H](C)C(=O)N[C@H](CC(C)C)C(=O)N[C@@H](C(=O)N[C@H](CO)C(N)=O)[C@H](C)CC)[C@H](C)O)[C@H](C)O)C(C)C)C(C)C [Compound 7]
- Lethal Concentrations SRC (Sheep red cells): > 400 µM

Molecule: CC[C@@H](C)[C@@H](NC(=O)CN)C(=O)NCC(=O)N[C@H](CCCCN)C(=O)N[C@H](Cc1ccccc1)C(=O)N[C@H](CC(C)C)C(=O)N[C@H](Cc1c[nH]cn1)C(=O)N[C@H](CO)C(=O)N[C@H](C)C(=O)N[C@H](CCCCN)C(=O)N[C@H](CCCCN)C(=O)N[C@H](Cc1ccccc1)C(=O)NCC(=O)N[C@H](CCCCN)C(=O)N[C@H](C)C(=O)N[C@H](Cc1ccccc1)C(=O)N[C@@H](C(=O)NCC(=O)N[C@H](CCC(=O)O)C(=O)N[C@@H](C(=O)N[C@H](CCSC)C(=O)N[C@H](CC(N)=O)C(=O)N[C@H](CO)C(N)=O)[C@H](C)CC)C(C)C [Compound 9] (HELM PEPTIDE1{G.[dI].G.[dK].[dF].[dL].[dH].[dS].[dA].[dK].[dK].[dF].G.[dK].[dA].[dF].[dV].G.[dE].[dI].[dM].[dN].[dS].[am]}$$$$V2.0)
- Lethal Concentrations Bs11 +ME (B. subtilis Bs11): 4 µM
- Lethal Concentrations Bs11 (B. subtilis Bs11): 3 µM
- Lethal Concentrations OT97 (P. aeruginosa OT97): 30 µM
- Lethal Concentrations Strep (S. pyogenes): 3 µM
- Lethal Concentrations SRC (Sheep red cells): > 400 µM
- Lethal Concentrations Staph (S. aureus Cowan 1): 100 µM
- Lethal Concentrations D21 (E. coli D21): 1 µM

Molecule: CC[C@H](C)[C@H](NC(=O)CN)C(=O)NCC(=O)N[C@@H](C)C(=O)N[C@H](C(=O)N[C@@H](CC(C)C)C(=O)N[C@@H](CCCCN)C(=O)N[C@H](C(=O)N[C@@H](CC(C)C)C(=O)N[C@H](C(=O)N[C@H](C(=O)NCC(=O)N[C@@H](CC(C)C)C(=O)N1CCC[C@H]1C(=O)N[C@@H](C)C(=O)N[C@@H](CC(C)C)C(=O)N[C@H](C(=O)N[C@@H](CO)C(=O)N[C@@H](Cc1c[nH]c2ccccc12)C(=O)N[C@H](C(=O)N[C@@H](CCCCN)C(=O)N[C@@H](CCCNC(=N)N)C(=O)N[C@@H](CCCCN)C(=O)N[C@@H](CCCNC(=N)N)C(=O)N[C@@H](CCC(N)=O)C(=O)N[C@@H](CCC(N)=O)C(N)=O)[C@@H](C)CC)[C@@H](C)CC)[C@@H](C)O)[C@@H](C)O)C(C)C)C(C)C [Compound 10, Melittin]
- Lethal Concentrations Bs11 +ME (B. subtilis Bs11): 0.3 µM
- Lethal Concentrations Bs11 (B. subtilis Bs11): 0.2 µM
- Lethal Concentrations OT97 (P. aeruginosa OT97): 3 µM
- Lethal Concentrations Strep (S. pyogenes): 0.5 µM
- Lethal Concentrations SRC (Sheep red cells): 4 to 8 µM
- Lethal Concentrations Staph (S. aureus Cowan 1): 0.2 µM
- Lethal Concentrations D21 (E. coli D21): 0.8 µM

Molecule: GIGKFLHSAKKFGKAFVGEIMNS-NH2 [Compound 8]
- Lethal Concentrations Bs11 +ME (B. subtilis Bs11): 8 µM
- Lethal Concentrations Bs11 (B. subtilis Bs11): 3 µM
- Lethal Concentrations OT97 (P. aeruginosa OT97): 30 µM
- Lethal Concentrations Strep (S. pyogenes): 4 µM
- Lethal Concentrations SRC (Sheep red cells): 300 µM
- Lethal Concentrations Staph (S. aureus Cowan 1): 300 µM
- Lethal Concentrations D21 (E. coli D21): 4 µM

From patent US5585353A, “Antibiotic peptides containing D-amino acids” (The Rockefeller University, priority 1994, dated 1996)
